Common to all, as to format: biochemical
One experiment concerns the target T1, cathepsin B (Homo sapiens, UniProt P07858).
T1 construct: cathepsin B—isolated from human liver (Calbiochem #219362); purchased Calbiochem 219362; host or cells: human liver (tissue-derived)
Briefly: Cathepsin B enzyme inhibition in vitro (kinetic fluorescence assay). The conditions noted are these: cathepsin B isolated from human liver vs calpain I. As to the method: (§1) The following solutions and buffers were employed: • HBS (for 40 ml): 800 μl M HEPES; 2.16 ml 100 mM KCl; 4.8 ml 1M NaCl; 3.59 ml 5% glucose; 60 μl μM MgSO4; 400 μl 100 mM Na pyruvate, 28.19 ml water; pH 7.2-7.5. • lysis buffer (for 20 ml): 400 μl M Tris pH 8.2; 2.74 ml 1M NaCl; 520 μl 0.5M EDTA; 2 ml 10% triton X-100; 0.8 ml (=1:25) CompletePlus (1 tablet/2 ml H2O); 200 μl 100 mM Pefabloc; 13.34 ml water, pH 8.2. • TBST (10×) (for 1 l): 100 mM Tris (12.1 g); 1.5M NaCl (87 g); 1% Tween 20 (10 g), adjusted to pH 8. I Enzyme Inhibition In Vitro: • Testing for blockade of the corresponding enzymic activities was carried out by means of kinetic fluorescence assays (excitation 390 nm, emission 460 nm). • Apparent Ki values were calculated from the experimentally determined IC50 values by the Cheng-Prussoff relation assuming a reversible competitive enzyme inhibition. The Km values of the substrates used under the assay conditions indicated above were: 90 μM (Z-Phe-Arg-AMC, cathepsin B), 10 μM (Z-Gly-Pro-Arg-AMC, cathepsin K), 2 μM (Z-Phe-Arg-AMC, cathepsin L), and 30 μM (Z-Val-Val-Arg-AMC, cathepsin S). • The indicated Ki values are averages of the inhibition constants calculated on the basis of 2 to 4 independent dose-effect plots.
(§2) The following assays were used: • 1. Calpain I: • 20 nM calpain-I—isolated from human erythrocytes (Calbiochem #208713), 100 μM Suc-Leu-Tyr-AMC (Bachem #1-1355) as substrate in buffer with 62 mM imidazole, 0.3 mM CaCl2, 0.10% CHAPS, 0.05% BSA, 1 mM DTT at pH 7.3 and room temperature. • 2. Cathepsin B: • 0.25 nM cathepsin B—isolated from human liver (Calbiochem #219362), 100 μM Z-Phe-Arg-AMC (Bachem #I-1160) as substrate 50 mM MES, 2 mM EDTA, 0.05% Brij 35, 2.5 mM L-cysteine, pH 6.0, room temperature. • 3. Cathepsin K: • 3 nM cathepsin K—activated from recombinant human procathepsin K from E. coli (Calbiochem #342001), 10 μM Z-Gly-Pro-Arg-AMC (Biomol #P-142) as substrate in 50 mM MES, 2 mM EDTA, 0.05% Brij 35, 2.5 mM L-cysteine, pH 6.0, room temperature. • 4. Cathepsin L: • 1 nM cathepsin L—isolated from human liver (Calbiochem #219402), 2 μM Z-Phe-Arg-AMC (Bachem #1-1160) as substrate in 50 mM MES, 2 mM EDTA, 0.05% Brij 35, 2.5 mM L-cysteine, pH 6.0, room temperature. • 5. Cathepsin S: • 0.5 nM recombinant human cathepsin S from E. coli (Calbiochem #219343), 20 μM Z-Val-Val-Arg-AMC (Bachem #1-1540) as substrate in 50 mM MES, 2 mM EDTA, 0.05% Brij 35, 2.5 mM L-cysteine, pH 6.0, room temperature. • The results of the in vitro determination are indicated in Table 1. The following abbreviations are used in Table 1: • The “Calpain activity” column, ++ stands for a calpain Ki (Ki(calpain)) of ≦40 nM and + means: 40 nM<Ki(Calpain)≦100 nM. • The “Sel. cat. B” column indicates the Ki(cathepsin B)/Ki(calpain) ratio. In this connection, ++ means a Ki(cathepsin B)/Ki(calpain) ratio of ≧30 and + means 10≦Ki(cathepsin B)/Ki(calpain)<30. • The “Sel. cat. K” column indicates the Ki(cathepsin K)/Ki(calpain) ratio. In this connection, ++ means a Ki(cathepsin K)/Ki(calpain) ratio of ≧30 and + means 10≦Ki(cathepsin K)/Ki(calpain)<30. • The “Sel. cat. L” column indicates the Ki(cathepsin L)/Ki(calpain) ratio. In this connection, ++ means a Ki(cathepsin L)/Ki(calpain) ratio of ≧50 and + means 30≦Ki(cathepsin L)/Ki(calpain)<50. • The “Sel. cat. S” column indicates the Ki(cathepsin S)/Ki(calpain) ratio. In this connection, ++ means a Ki(cathepsin S)/Ki(calpain) ratio of ≧100 and + means 50≦Ki(cathepsin S)/Ki(calpain)<100.

The next experiment deals with T2, cathepsin K (Homo sapiens, UniProt P43235).
T2 construct: purchased Calbiochem 342001; host or cells: E. coli
T2 sequence (P43235 115-329): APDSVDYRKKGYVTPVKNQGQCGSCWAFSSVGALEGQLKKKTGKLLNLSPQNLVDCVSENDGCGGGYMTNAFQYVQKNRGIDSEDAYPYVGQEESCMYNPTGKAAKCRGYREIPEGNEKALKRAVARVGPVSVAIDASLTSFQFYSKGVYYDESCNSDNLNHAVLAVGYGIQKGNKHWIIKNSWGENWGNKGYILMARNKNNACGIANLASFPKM
Briefly: Cathepsin K enzyme inhibition in vitro (kinetic fluorescence assay). Conditions: cathepsin K activated from recombinant human procathepsin K vs calpain I. How it is done: as §1, §2

The next experiment addresses T3, cathepsin L (Homo sapiens, UniProt P07711).
T3 construct: cathepsin L—isolated from human liver (Calbiochem #219402); purchased Calbiochem 219402; host or cells: human liver (tissue-derived)
Kind of experiment: Cathepsin L enzyme inhibition in vitro (kinetic fluorescence assay). Conditions: cathepsin L isolated from human liver vs calpain I. In a few lines:
(§3)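 cat B 0.25 nM + Z-Phe-Arg-AMC 100 μM; cat L 1 nM + Z-Phe-Arg-AMC 2 μM; cat S 0.5 nM (E. coli-expressed) + Z-Val-Val-Arg-AMC 20 μM. 50 mM MES pH 6.0, 2.5 mM L-Cys, RT. Ex 390/em 460, kinetic; Ki app = Cheng-Prusoff from IC50, mean of 2–4 curves.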

The next experiment deals with T4, cathepsin S (Homo sapiens, UniProt P25774).
T4 construct: purchased Calbiochem 219343; host or cells: E. coli
Briefly: Cathepsin S enzyme inhibition in vitro (kinetic fluorescence assay). The conditions noted are these: recombinant human cathepsin S vs calpain I. In a few lines:
as §3

T3 sequence (P07711 114-333): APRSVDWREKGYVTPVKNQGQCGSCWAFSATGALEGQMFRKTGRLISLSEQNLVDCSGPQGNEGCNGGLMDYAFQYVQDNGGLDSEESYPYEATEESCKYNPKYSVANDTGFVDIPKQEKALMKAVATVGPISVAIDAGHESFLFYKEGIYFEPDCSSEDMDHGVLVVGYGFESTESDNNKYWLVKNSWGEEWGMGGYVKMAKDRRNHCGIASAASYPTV
T4 sequence (P25774 115-331): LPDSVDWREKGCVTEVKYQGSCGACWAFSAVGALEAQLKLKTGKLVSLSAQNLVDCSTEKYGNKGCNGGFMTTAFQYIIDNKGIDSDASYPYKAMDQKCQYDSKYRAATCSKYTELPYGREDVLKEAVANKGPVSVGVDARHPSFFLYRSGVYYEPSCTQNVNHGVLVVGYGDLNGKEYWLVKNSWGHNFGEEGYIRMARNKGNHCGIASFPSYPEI

Consider `NC(=O)C(=O)C(Cc1ccccc1)NC(=O)c1cccnc1-n1ccc(-c2ccccc2)n1` (centres unmarked) [Example 5, N-(3-Amino-1-benzyl-2,3-dioxopropyl)-2-(3-phenyl-1H-pyrazol-1-yl)nicotinamide], for which the “Sel cat. B: Ki(cathepsin B)/Ki(calpain) ratio” value at cathepsin B is listed as “+ (+ means 10≦Ki(cathepsin B)/Ki(calpain)<30)”. At cathepsin K, the “Sel cat. K: Ki(cathepsin K)/Ki(calpain) ratio” value is “+ (+ means 10≦Ki(cathepsin K)/Ki(calpain)<30)”. Moreover, the “Sel cat. L: Ki(cathepsin L)/Ki(calpain) ratio” value on cathepsin L was “++ (++ means a Ki(cathepsin L)/Ki(calpain) ratio of ≧50)”. Also, the “Sel cat. S: Ki(cathepsin S)/Ki(calpain) ratio” value on cathepsin S is on record as “++ (++ means a Ki(cathepsin S)/Ki(calpain) ratio of ≧100)”.

With `NC(=O)C(=O)C(Cc1ccccc1)NC(=O)c1cccnc1-n1ccc(-c2ccccn2)n1` (centres unmarked) [Example 35, N-(3-Amino-1-benzyl-2,3-dioxopropyl)-2-(3-pyridin-2-yl-1H-pyrazol-1-yl)nicotinamide], the “Sel cat. B: Ki(cathepsin B)/Ki(calpain) ratio” value on cathepsin B is “+ (+ means 10≦Ki(cathepsin B)/Ki(calpain)<30)”. The “Sel cat. K: Ki(cathepsin K)/Ki(calpain) ratio” value on cathepsin K was “+ (+ means 10≦Ki(cathepsin K)/Ki(calpain)<30)”. Further, at cathepsin L, the “Sel cat. L: Ki(cathepsin L)/Ki(calpain) ratio” value is recorded as “++ (++ means a Ki(cathepsin L)/Ki(calpain) ratio of ≧50)”. Further, the “Sel cat. S: Ki(cathepsin S)/Ki(calpain) ratio” value on cathepsin S was “++ (++ means a Ki(cathepsin S)/Ki(calpain) ratio of ≧100)”.

For the compound `NC(=O)C(=O)C(Cc1ccccc1)NC(=O)c1cccnc1-n1ccc(-c2ccc(F)cc2)n1` (centres unmarked) [Example 38, N-(3-Amino-1-benzyl-2,3-dioxopropyl)-2-[3-(4-fluorophenyl)-1H-pyrazol-1-yl]nicotinamide], the “Sel cat. B: Ki(cathepsin B)/Ki(calpain) ratio” value at cathepsin B was “+ (+ means 10≦Ki(cathepsin B)/Ki(calpain)<30)”. Moreover, the “Sel cat. K: Ki(cathepsin K)/Ki(calpain) ratio” value on cathepsin K is on record as “+ (+ means 10≦Ki(cathepsin K)/Ki(calpain)<30)”. For the same compound, the “Sel cat. L: Ki(cathepsin L)/Ki(calpain) ratio” value at cathepsin L is recorded as “++ (++ means a Ki(cathepsin L)/Ki(calpain) ratio of ≧50)”. In addition, the “Sel cat. S: Ki(cathepsin S)/Ki(calpain) ratio” value at cathepsin S is on record as “++ (++ means a Ki(cathepsin S)/Ki(calpain) ratio of ≧100)”.

Regarding `COc1ccc(-c2ccn(-c3ncccc3C(=O)NC(Cc3ccccc3)C(=O)C(N)=O)n2)cc1` (centres unmarked) [Example 48, N-(3-Amino-1-benzyl-2,3-dioxopropyl)-2-[3-(4-methoxyphenyl)-1H-pyrazol-1-yl]nicotinamide], the “Sel cat. B: Ki(cathepsin B)/Ki(calpain) ratio” value at cathepsin B was “+ (+ means 10≦Ki(cathepsin B)/Ki(calpain)<30)”. Besides, at cathepsin K, the “Sel cat. K: Ki(cathepsin K)/Ki(calpain) ratio” value was “+ (+ means 10≦Ki(cathepsin K)/Ki(calpain)<30)”. Further, the “Sel cat. L: Ki(cathepsin L)/Ki(calpain) ratio” value on cathepsin L is listed as “++ (++ means a Ki(cathepsin L)/Ki(calpain) ratio of ≧50)”. Moreover, the “Sel cat. S: Ki(cathepsin S)/Ki(calpain) ratio” value on cathepsin S was “++ (++ means a Ki(cathepsin S)/Ki(calpain) ratio of ≧100)”.

As for `NC(=O)C(=O)C(Cc1ccc(Cl)cc1)NC(=O)c1cccnc1-n1ccc(-c2ccccc2)n1` (centres unmarked) [Example 50, N-[3-Amino-1-(4-chlorobenzyl)-2,3-dioxopropyl]-2-(3-phenyl-1H-pyrazol-1-yl)nicotinamide], at cathepsin B, the “Sel cat. B: Ki(cathepsin B)/Ki(calpain) ratio” value is “+ (+ means 10≦Ki(cathepsin B)/Ki(calpain)<30)”. Also, the “Sel cat. K: Ki(cathepsin K)/Ki(calpain) ratio” value on cathepsin K is recorded as “+ (+ means 10≦Ki(cathepsin K)/Ki(calpain)<30)”. Moreover, the “Sel cat. L: Ki(cathepsin L)/Ki(calpain) ratio” value at cathepsin L is reported as “+ (+ means 30≦Ki(cathepsin L)/Ki(calpain)<50)”. Further, the “Sel cat. S: Ki(cathepsin S)/Ki(calpain) ratio” value at cathepsin S was “+ (+ means 50≦Ki(cathepsin S)/Ki(calpain)<100)”.

With `NC(=O)C(=O)C(Cc1ccccc1)NC(=O)c1cccnc1-n1ccc(-c2ccccc2Cl)n1` (centres unmarked) [Example 54, N-(3-Amino-1-benzyl-2,3-dioxopropyl)-2-[3-(2-chlorophenyl)-1H-pyrazol-1-yl]nicotinamide], the “Sel cat. B: Ki(cathepsin B)/Ki(calpain) ratio” value at cathepsin B is recorded as “++ (++ means a Ki(cathepsin B)/Ki(calpain) ratio of ≧30)”. For the same compound, the “Sel cat. K: Ki(cathepsin K)/Ki(calpain) ratio” value on cathepsin K is “++ (++ means a Ki(cathepsin K)/Ki(calpain) ratio of ≧30)”. The “Sel cat. L: Ki(cathepsin L)/Ki(calpain) ratio” value at cathepsin L is recorded as “++ (++ means a Ki(cathepsin L)/Ki(calpain) ratio of ≧50)”. Also, at cathepsin S, the “Sel cat. S: Ki(cathepsin S)/Ki(calpain) ratio” value is recorded as “++ (++ means a Ki(cathepsin S)/Ki(calpain) ratio of ≧100)”.

Regarding `NC(=O)C(=O)C(Cc1ccccc1)NC(=O)c1cccnc1-n1ccc(-c2cccs2)n1` (centres unmarked) [Example 55, N-(3-Amino-1-benzyl-2,3-dioxopropyl)-2-[3-(2-thienyl)-1H-pyrazol-1-yl]nicotinamide], the “Sel cat. B: Ki(cathepsin B)/Ki(calpain) ratio” value at cathepsin B is “+ (+ means 10≦Ki(cathepsin B)/Ki(calpain)<30)”. The “Sel cat. K: Ki(cathepsin K)/Ki(calpain) ratio” value on cathepsin K is reported as “+ (+ means 10≦Ki(cathepsin K)/Ki(calpain)<30)”. The “Sel cat. L: Ki(cathepsin L)/Ki(calpain) ratio” value at cathepsin L is “++ (++ means a Ki(cathepsin L)/Ki(calpain) ratio of ≧50)”. At cathepsin S, the “Sel cat. S: Ki(cathepsin S)/Ki(calpain) ratio” value is “++ (++ means a Ki(cathepsin S)/Ki(calpain) ratio of ≧100)”.

Turning to `NC(=O)C(=O)C(Cc1ccccc1)NC(=O)c1cccnc1-n1ccc(-c2cccc(N3CCOCC3)c2)n1` (centres unmarked) [Example 58, N-(3-Amino-1-benzyl-2,3-dioxopropyl)-2-[3-(3-morpholin-4-ylphenyl)-1H-pyrazol-1-yl]nicotinamide], the “Sel cat. B: Ki(cathepsin B)/Ki(calpain) ratio” value at cathepsin B was “+ (+ means 10≦Ki(cathepsin B)/Ki(calpain)<30)”. Further, the “Sel cat. K: Ki(cathepsin K)/Ki(calpain) ratio” value at cathepsin K is on record as “+ (+ means 10≦Ki(cathepsin K)/Ki(calpain)<30)”. The “Sel cat. L: Ki(cathepsin L)/Ki(calpain) ratio” value at cathepsin L is reported as “++ (++ means a Ki(cathepsin L)/Ki(calpain) ratio of ≧50)”. The “Sel cat. S: Ki(cathepsin S)/Ki(calpain) ratio” value on cathepsin S is given as “++ (++ means a Ki(cathepsin S)/Ki(calpain) ratio of ≧100)”.

`COc1ccc(OC)c(-c2ccn(-c3ncccc3C(=O)NC(Cc3ccccc3)C(=O)C(N)=O)n2)c1` (centres unmarked) [Example 151, N-[3-Amino-2,3-dioxo-1-(phenylmethyl)propyl]-2-{3-[2,5-bis(methyloxy)phenyl]-1H-pyrazol-1-yl}pyridine-3-carboxamide]: the “Sel cat. B: Ki(cathepsin B)/Ki(calpain) ratio” value on cathepsin B is “++ (++ means a Ki(cathepsin B)/Ki(calpain) ratio of ≧30)”. Further, the “Sel cat. K: Ki(cathepsin K)/Ki(calpain) ratio” value on cathepsin K is reported as “++ (++ means a Ki(cathepsin K)/Ki(calpain) ratio of ≧30)”. The “Sel cat. L: Ki(cathepsin L)/Ki(calpain) ratio” value at cathepsin L is recorded as “++ (++ means a Ki(cathepsin L)/Ki(calpain) ratio of ≧50)”.
